Values after ≈ are worked out from the molar mass of the structure shown. Like-named read-outs stand apart in the source and are kept apart here.
Test: Equilibrium solubility by the shake flask method
Assay type: physicochemical
Details: 37 °C; for Equilibrium solubility, Concentration / solubility thermodynamic at 72 h: n = 3; for solubility thermodynamic at 72 h: thermodynamic from solid, read-out: Equilibrium solubility, Concentration
Protocol: Aqueous solubility is one of the key factors affecting the bioavailability of drugs. […] Generally, the charged part has high aqueous solubility. […] The concentration of the samples was analyzed through high-performance liquid chromatography. The mobile phase consisted of methanol, acetonitrile, and phosphate buffer (15:15:70).

| SMILES | Equilibrium solubility, Concentration (H2O (purified water)) [mg/mL] | Solubility relative to that of MAT (acetate buffer (pH 4.5)) [times] | Solubility relative to that of MAT (hydrochloric acid solution (pH 1.2)) [times] | Equilibrium solubility, Concentration (pH = 1.2 hydrochloric acid solution) [mg/mL] | Equilibrium solubility, Concentration (pH = 4.5 acetic acid buffer) [mg/mL] | Equilibrium solubility, Concentration (pH = 6.8 phosphate buffer) [mg/mL] | Solubility relative to that of MAT (phosphate buffer (pH 6.8)) [times] | Solubility relative to that of MAT (pure water) [times] | solubility thermodynamic at 72 h (aqueous buffer, pH = 4.5 acetic acid buffer) [mg/mL] | solubility thermodynamic at 72 h (aqueous buffer, pH = 6.8 phosphate buffer) [mg/mL] | solubility thermodynamic at 72 h (simulated gastric fluid, pH = 1.2 hydrochloric acid solution) [mg/mL] | solubility thermodynamic at 72 h (H2O (purified water)) [mg/mL] |
| --- | --- | --- | --- | --- | --- | --- | --- | --- | --- | --- | --- | --- |
| O=C(O)c1c(O)cccc1O.O=C1CCCC2C3CCCN4CCCC(CN12)C34 (stereo not drawn) [MAT-26DHB, MAT-2,6-dihydroxybenzoic acid] | 7.42 ± 0.45 | 0.09 | 0.14 | 13.08 ± 1.52 | 8.23 ± 0.10 | 5.71 ± 0.75 | 0.09 | 0.11 |  |  |  |  |
| O=C1CCC[C@@H]2[C@H]3CCCN4CCC[C@@H](CN12)[C@@H]34 [MAT, Matrine] |  |  |  |  |  |  |  |  | 91.8 ± 2.31 (≈ 370 mM) | 64.9 ± 1.13 (≈ 261 mM) | 90.9 ± 1.01 (≈ 366 mM) | 65.36 ± 0.53 (≈ 263 mM) |

— paper PMC10818515, “Improvement of the Thermal Stability and Aqueous Solubility of Three Matrine Salts Assembled by the Similar Structure Salt Formers” (Pharmaceuticals, 2024)
